In US6110934A, “Substituted benzamide derivatives and their use as anticonvulsants” (SmithKline Beecham p.l.c., priority 1996, dated 2000):
Counter-ions that a name gives are not always drawn.

target: novel receptor obtainable from rat forebrain tissue; assay: Radioligand binding assay, displacement of [3H]-Compound A; details: competition with [3H]-Compound A (usually 20 nM), room temperature, 1 hour
Experimental: The affinity of test compounds to the novel receptor site is assessed as follows. Whole forebrain tissue is obtained from rats. The tissue is first homogenised in buffer (usually 50 mM Tris/HCl, pH 7.4). The homogenised tissue is washed by centrifugation and resuspension in the same buffer, then stored at -70° C. until used. […] The final concentration of [3H]-Compound A in the mixture is usually 20 nM. The mixture is incubated at room temperature for 1 hour. [3H]-Compound A bound to the tissue is then separated from unbound [3H]-Compound A by filtration through Watman GF/B glass fibre filters. The filters are then washed rapidly with ice-cold buffer. The amount of radioactivity bound to the tissue trapped on the filters is measured by addition of liquid scintillation cocktail to the filters followed by counting in a liquid scintillation counter. In order to determine the amount of "specific" binding of [3H]-Compound A, parallel assays are carried out as above in which [3H]-Compound A and tissue are incubated together in the presence of unlabelled Compound A (usually 3 μM). The amount of binding of [3H]-Compound A remaining in the presence of this unlabelled compound is defined as "non-specific" binding. This amount is subtracted from the total amount of [3H]-Compound A binding (i.e. that present in the absence of unlabelled compound) to obtain the amount of "specific" binding of [3H]-Compound A to the novel site. The affinity of the binding of test compounds to the novel site can be estimated by incubating together [3H]-Compound A and tissue in the presence of a range of concentrations of the compound to be tested. The decrease in the level of specific [3H]-Compound A binding as a result of competition by increasing concentrations of the compound under test is plotted graphically, and non-linear regression analysis of the resulthant curve is used to provide an estimate of compound affinity in terms of pKi value.

pKi, greater than 7:
COc1cc(N)c(Cl)cc1C(=O)Nc1cccc2c1CCN(C)C2.Cl [Example 1, N-(2-Methyl-1,2,3,4-tetrahydroisoquinolin-5-yl)-4-amino-5-chloro-2-methoxy-benzamide Hydrochloride]
COc1cc(N)c(Br)cc1C(=O)Nc1cccc2c1CCN(C)C2 [Example 7, N-(2-Methyl-1,2,3,4-tetrahydroisoquinolin-5-yl)-4-amino-5-bromo-2-methoxybenzamide]
CCCOc1cc(N)c(Cl)cc1C(=O)Nc1cccc2c1CCN(C)C2 [Example 10, N-(2-Methyl-1,2,3,4-tetrahydroisoquinolin-5-yl)-4-amino-5-chloro-2-propoxy-benzamide]
COc1cc(N)c(I)cc1C(=O)Nc1cccc2c1CCN(C)C2 [Example 13, N-(2-Methyl-1,2,3,4-tetrahydroisoquinolin-5-yl)-4-amino-5-iodo-2-methoxybenzamide]
COc1cc(OC)c(C(=O)Nc2cccc3c2CCN(C)C3)cc1Cl [Example 16, N-(2-Methyl-1,2;3,4-tetrahydroisoquinolin-5-yl)-5-chloro-2,4-dimethoxybenzamide]
COc1cc(OC)c(C(=O)Nc2cccc3c2CCN(C)C3)cc1Br [Example 17, N-(2-Methyl-1,2,3,4-tetrahydroisoquinolin-5-yl)-5-bromo-2,4-dimethoxybenzamide]
COc1cc(OC)c(C(=O)Nc2cccc3c2CCNC3)cc1Cl [Example 19, N-(1,2,3,4-Tetrahydroisoquinolin-5-yl)-5-chloro-2,4-dimethoxybenzamide]
COc1cc(C)c(Cl)cc1C(=O)Nc1cccc2c1CCN(C)C2 [Example 20, N-(2-Methyl-1,2,3,4-tetrahydroisoquinolin-5-yl)-5-chloro-2-methoxy-4-methylbenzamide]
CCOc1cc(OC)c(C(=O)Nc2cccc3c2CCN(C)C3)cc1Cl [Example 23, N-(2-Methyl-1,2,3,4-tetrahydroisoquinolin-5-yl)-5-chloro-4-ethoxy-2-methoxybenzamide]
COc1cc(C)c(Br)cc1C(=O)Nc1cccc2c1CCN(C)C2 [Example 25, N-(2-Methyl-1,2,3,4-tetrahydroisoquinolin-5-yl)-5-bromo-2-methoxy-4-methylbenzamide]
COc1cc(C(C)(C)C)ccc1C(=O)Nc1cccc2c1CCN(C)C2.Cl [Example 35, N-(2-Methyl-1,2,3,4-tetrahydroisoquinolin-5-yl)-4-tert-butyl-2-methoxybenzamide Hydrochloride]
CCc1cc(OC)c(C(=O)Nc2cccc3c2CCN(C)C3)cc1Cl [Example 37, N-(2-Methyl-1,2,3,4-tetrahydroisoquinolin-5-yl)-4-ethyl-2-methoxy-5-chloro Benzamide, Hydrochloride]
COc1cc(OC(C)C)c(Br)cc1C(=O)Nc1cccc2c1CCN(C)C2.Cl [Example 45, N-(2-Methyl-1,2,3,4-tetrahydroisoquinolin-5-yl)-5-bromo-4-iso-propoxy-2-methoxybenzamide, Hydrochloride]
COc1cc(C(C)C)c(C(F)(F)F)cc1C(=O)Nc1cccc2c1CCN(C)C2.Cl [Example 46, N-(2-Methyl-1,2,3,4-tetrahydroisoquinolin-5-yl)-4-iso-propyl-5-trifluoromethyl-2-methoxybenzamide, Hydrochloride]
COc1ccc(C(=O)C(C)C)cc1C(=O)Nc1cccc2c1CCN(C)C2 [Example 49, N-(2-Methyl-1,2,3,4-tetrahydroisoquinolin-5-yl) 5-iso-butyroyl-2-methoxy-benzamide Hydrochloride]
COc1ccc(C(=O)C(C)(C)C)cc1C(=O)Nc1cccc2c1CCN(C)C2.Cl [Example 50, N-(2-Methyl-1,2,3,4-tetrahydroisoquinolin-5-yl)-5-pivaloyl-2-methoxybenzamide, Hydrochloride]
COc1cc(OC)c(C(=O)Nc2ccc3c(c2)CN(C)CC3)cc1Br.Cl [Example 52, N-(2-Methyl-1,2,3,4-tetrahydroisoquinolin-7-yl)-5-bromo-2,4-dimethoxybenzamide, Hydrochloride Salt]
CCc1cc(OC)c(C(=O)Nc2cccc3c2CCN(C)C3)cc1C(F)(F)F.Cl [Example 68, N-(2-Methyl-1,2,3,4-tetrahydroisoquinolin-5-yl)-4-ethyl-2-methoxy-5-trifluoromethylbenzamide, Hydrochloride]
COc1cc(OC(C)C)c(C(C)=O)cc1C(=O)Nc1cccc2c1CCN(C)C2.Cl [Example 70, N-(2-Methyl-1,2,3,4-tetrahydroisoquinolin-5-yl)-2-methoxy-4-iso-propyloxy-5-acetyl-benzamide, Hydrochloride]
COc1cc(OC(C)C)c(Cl)cc1C(=O)Nc1cccc2c1CCN(C)C2.Cl [Example 71, N-(2-Methyl-1,2,3,4-tetrahydroisoquinolin-5-yl)-5-chloro-2-methoxy-4-iso-propoxybenzamide, Hydrochloride]
